Measured values published in ChEMBL document CHEMBL1151366, “Potential Anticancer Agents. XVIII. Constituents of Amyris pinnata” (1981).
In brackets after ≈: the same amount, converted by molar mass. Activity calls are given as the source filed them. The calls are words filed in the database; no cut-off is given here.

What was measured:
[1] = Cytotoxicity against human 9KB cells; type: functional; details: read-out: ED50 (the source's name)
[2] = tested on: P388; test: In vivo antitumor activity against mouse P388 cells at 7.5 mg/kg relative to control; type: functional
[3] = tested on: B16; test: In vivo antitumor activity against mouse B16 cells at 1.5 to 12.0 mg/kg relative to control; type: functional, organism-based

| Compound | EC50 [1] [µg/mL] | T/C [2] [%] | Activity [3] |
| --- | --- | --- | --- |
| O=C1OC[C@H](Cc2ccc3c(c2)OCO3)/C1=C\c1ccc2c(c1)OCO2 [SAVININ] | 22 (≈ 62.4 µM) |  |  |
| CC1(C)C=Cc2c(ccc3ccc(=O)oc23)O1 [SESALIN] | 31 (≈ 136 µM) |  |  |
| CC[C@H](CC[C@@H](C)[C@H]1CC[C@H]2[C@@H]3CC=C4C[C@@H](O)CC[C@]4(C)[C@H]3CC[C@]12C)C(C)C [BETA-SITOSTEROL] | 22 (≈ 53 µM) |  |  |
| O=C1OCC(C(O)c2ccc3c(c2)OCO3)C1Cc1ccc2c(c1)OCO2 (stereo unspecified) [SVENTENIN] | 23 (≈ 62.1 µM) |  |  |
| COc1cc([C@@H]2c3cc4c(cc3C[C@H]3COC(=O)[C@@H]32)OCO4)cc2c1OCO2 [AUSTROBAILIGNAN 1] | 0.027 (≈ 0.0706 µM) | 125 | inactive |
| CC(C)(O)[C@H](O)COc1c2occc2cc2ccc(=O)oc12 [HERACLENOL] | > 100 |  |  |
| COc1c2ccoc2c(OCC=C(C)C)c2oc(=O)ccc12 [PHELLOPTERIN] | 7.2 (≈ 24 µM) |  |  |
| COc1cc2ccc(=O)oc2cc1O [SCOPOLETIN] | 2.9 (≈ 15.1 µM) |  |  |
| CC(C)=CCOc1c2occc2cc2ccc(=O)oc12 [PENTOSALEN] | 33 (≈ 122 µM) |  |  |
